In the NIST ThermoML archive (doi:10.1016/j.jct.2018.10.007):

Settings: Liquid, Rate of evaporation

## CCCCCC[P+](CCCCC)(CCCCCC)CCCCCC.F[P-](F)(F)(F)(F)F [trihexylpentylphosphonium hexafluorophosphate]
403.41 K
  vapor or sublimation pressure: 5e-10 kPa
405.89 K
  vapor or sublimation pressure: 6.6e-10 kPa
408.27 K
  vapor or sublimation pressure: 8.8e-10 kPa
410.78 K
  vapor or sublimation pressure: 1.2e-09 kPa
413.19 K
  vapor or sublimation pressure: 1.6e-09 kPa
415.69 K
  vapor or sublimation pressure: 2.1e-09 kPa
418.15 K
  vapor or sublimation pressure: 2.8e-09 kPa
420.65 K
  vapor or sublimation pressure: 3.7e-09 kPa
423.13 K
  vapor or sublimation pressure: 4.8e-09 kPa
425.62 K
  vapor or sublimation pressure: 6.5e-09 kPa
428.15 K
  vapor or sublimation pressure: 8.5e-09 kPa
430.63 K
  vapor or sublimation pressure: 1.1e-08 kPa
433.15 K
  vapor or sublimation pressure: 1.4e-08 kPa
435.65 K
  vapor or sublimation pressure: 1.8e-08 kPa
438.17 K
  vapor or sublimation pressure: 2.4e-08 kPa
440.7 K
  vapor or sublimation pressure: 3.1e-08 kPa
443.21 K
  vapor or sublimation pressure: 3.9e-08 kPa
445.73 K
  vapor or sublimation pressure: 5.1e-08 kPa
448.25 K
  vapor or sublimation pressure: 6.5e-08 kPa
450.79 K
  vapor or sublimation pressure: 8.3e-08 kPa

## CCCCCCCC[P+](CCCCCC)(CCCCCC)CCCCCC.F[P-](F)(F)(F)(F)F [trihexyloctylphosphonium hexafluorophosphate]
408.34 K
  vapor or sublimation pressure: 3.4e-10 kPa
410.85 K
  vapor or sublimation pressure: 4.4e-10 kPa
410.96 K
  vapor or sublimation pressure: 4.8e-10 kPa
413.36 K
  vapor or sublimation pressure: 6.3e-10 kPa
415.82 K
  vapor or sublimation pressure: 8.4e-10 kPa
415.89 K
  vapor or sublimation pressure: 8e-10 kPa
418.37 K
  vapor or sublimation pressure: 1.1e-09 kPa
420.79 K
  vapor or sublimation pressure: 1.5e-09 kPa
420.83 K
  vapor or sublimation pressure: 1.5e-09 kPa
423.37 K
  vapor or sublimation pressure: 2e-09 kPa
425.75 K
  vapor or sublimation pressure: 2.7e-09 kPa
425.79 K
  vapor or sublimation pressure: 2.7e-09 kPa
428.38 K
  vapor or sublimation pressure: 3.6e-09 kPa
430.75 K
  vapor or sublimation pressure: 4.6e-09 kPa
430.81 K
  vapor or sublimation pressure: 4.7e-09 kPa
433.38 K
  vapor or sublimation pressure: 6.1e-09 kPa
435.72 K
  vapor or sublimation pressure: 8e-09 kPa
435.73 K
  vapor or sublimation pressure: 7.9e-09 kPa
438.4 K
  vapor or sublimation pressure: 1.1e-08 kPa
440.74 K
  vapor or sublimation pressure: 1.4e-08 kPa
443.39 K
  vapor or sublimation pressure: 1.8e-08 kPa
445.76 K
  vapor or sublimation pressure: 2.3e-08 kPa
448.39 K
  vapor or sublimation pressure: 3e-08 kPa
450.79 K
  vapor or sublimation pressure: 3.9e-08 kPa
450.8 K
  vapor or sublimation pressure: 3.8e-08 kPa
453.43 K
  vapor or sublimation pressure: 5.1e-08 kPa
455.83 K
  vapor or sublimation pressure: 6.5e-08 kPa
455.85 K
  vapor or sublimation pressure: 6.4e-08 kPa

## CCCCCCCC[P+](CCCCCCCC)(CCCCCCCC)CCCCCCCC.[Cl-] [tetraoctylphosphonium chloride]
408.38 K
  vapor or sublimation pressure: 1.5e-10 kPa
410.9 K
  vapor or sublimation pressure: 2.3e-10 kPa
413.32 K
  vapor or sublimation pressure: 2.9e-10 kPa
413.46 K
  vapor or sublimation pressure: 3.3e-10 kPa
415.87 K
  vapor or sublimation pressure: 4.2e-10 kPa
418.26 K
  vapor or sublimation pressure: 5.5e-10 kPa
418.44 K
  vapor or sublimation pressure: 5.9e-10 kPa
420.79 K
  vapor or sublimation pressure: 7.9e-10 kPa
423.23 K
  vapor or sublimation pressure: 1e-09 kPa
423.41 K
  vapor or sublimation pressure: 1.2e-09 kPa
425.8 K
  vapor or sublimation pressure: 1.5e-09 kPa
428.2 K
  vapor or sublimation pressure: 2e-09 kPa
428.36 K
  vapor or sublimation pressure: 2e-09 kPa
430.73 K
  vapor or sublimation pressure: 2.7e-09 kPa
433.18 K
  vapor or sublimation pressure: 3.8e-09 kPa
433.31 K
  vapor or sublimation pressure: 3.7e-09 kPa
435.74 K
  vapor or sublimation pressure: 5e-09 kPa
438.21 K
  vapor or sublimation pressure: 6.7e-09 kPa
438.28 K
  vapor or sublimation pressure: 6.6e-09 kPa
440.77 K
  vapor or sublimation pressure: 8.8e-09 kPa
443.21 K
  vapor or sublimation pressure: 1.2e-08 kPa
443.3 K
  vapor or sublimation pressure: 1.2e-08 kPa
445.8 K
  vapor or sublimation pressure: 1.5e-08 kPa
448.27 K
  vapor or sublimation pressure: 2.1e-08 kPa
448.33 K
  vapor or sublimation pressure: 2e-08 kPa
450.84 K
  vapor or sublimation pressure: 2.6e-08 kPa
453.31 K
  vapor or sublimation pressure: 3.9e-08 kPa
453.36 K
  vapor or sublimation pressure: 3.4e-08 kPa
455.89 K
  vapor or sublimation pressure: 4.6e-08 kPa
458.4 K
  vapor or sublimation pressure: 6.2e-08 kPa

## CCCCCC[P+](CCCCCC)(CCCCCC)CCCCCC.[Br-] [tetrahexylphosphonium bromide]
400.93 K
  vapor or sublimation pressure: 3.7e-10 kPa
403.37 K
  vapor or sublimation pressure: 5.3e-10 kPa
403.43 K
  vapor or sublimation pressure: 5e-10 kPa
408.28 K
  vapor or sublimation pressure: 9.5e-10 kPa
408.37 K
  vapor or sublimation pressure: 9.4e-10 kPa
410.79 K
  vapor or sublimation pressure: 1.2e-09 kPa
410.8 K
  vapor or sublimation pressure: 1.3e-09 kPa
410.82 K
  vapor or sublimation pressure: 1.3e-09 kPa
413.22 K
  vapor or sublimation pressure: 1.7e-09 kPa
413.3 K
  vapor or sublimation pressure: 1.7e-09 kPa
415.71 K
  vapor or sublimation pressure: 2.1e-09 kPa
415.72 K
  vapor or sublimation pressure: 2.2e-09 kPa
415.78 K
  vapor or sublimation pressure: 2.3e-09 kPa
418.18 K
  vapor or sublimation pressure: 2.9e-09 kPa
418.27 K
  vapor or sublimation pressure: 2.9e-09 kPa
420.76 K
  vapor or sublimation pressure: 3.9e-09 kPa
423.16 K
  vapor or sublimation pressure: 5.2e-09 kPa
423.23 K
  vapor or sublimation pressure: 5.4e-09 kPa
425.66 K
  vapor or sublimation pressure: 6.9e-09 kPa
425.67 K
  vapor or sublimation pressure: 6.8e-09 kPa
425.75 K
  vapor or sublimation pressure: 6.8e-09 kPa
428.16 K
  vapor or sublimation pressure: 8.8e-09 kPa
428.22 K
  vapor or sublimation pressure: 8.9e-09 kPa
430.73 K
  vapor or sublimation pressure: 1.2e-08 kPa
433.18 K
  vapor or sublimation pressure: 1.5e-08 kPa
433.24 K
  vapor or sublimation pressure: 1.5e-08 kPa
435.67 K
  vapor or sublimation pressure: 2e-08 kPa
435.68 K
  vapor or sublimation pressure: 2e-08 kPa
435.75 K
  vapor or sublimation pressure: 2e-08 kPa
438.21 K
  vapor or sublimation pressure: 2.5e-08 kPa
438.25 K
  vapor or sublimation pressure: 2.6e-08 kPa
440.7 K
  vapor or sublimation pressure: 3.3e-08 kPa
440.72 K
  vapor or sublimation pressure: 3.3e-08 kPa
440.77 K
  vapor or sublimation pressure: 3.4e-08 kPa
443.24 K
  vapor or sublimation pressure: 4.2e-08 kPa
443.29 K
  vapor or sublimation pressure: 4.3e-08 kPa
445.74 K
  vapor or sublimation pressure: 5.5e-08 kPa
445.75 K
  vapor or sublimation pressure: 5.5e-08 kPa
445.79 K
  vapor or sublimation pressure: 5.8e-08 kPa
448.3 K
  vapor or sublimation pressure: 7.2e-08 kPa
448.31 K
  vapor or sublimation pressure: 7.1e-08 kPa
450.8 K
  vapor or sublimation pressure: 9.1e-08 kPa
450.81 K
  vapor or sublimation pressure: 9e-08 kPa

## CCCCCCCCCCCCCC[P+](CCCC)(CCCC)CCCC.O=S(=O)([N-]S(=O)(=O)C(F)(F)F)C(F)(F)F
393.28 K
  vapor or sublimation pressure: 1.6e-09 kPa
395.67 K
  vapor or sublimation pressure: 2e-09 kPa
398.14 K
  vapor or sublimation pressure: 2.9e-09 kPa
400.54 K
  vapor or sublimation pressure: 4.1e-09 kPa
403.07 K
  vapor or sublimation pressure: 5.3e-09 kPa
405.5 K
  vapor or sublimation pressure: 7.3e-09 kPa
408.02 K
  vapor or sublimation pressure: 1e-08 kPa
410.51 K
  vapor or sublimation pressure: 1.4e-08 kPa
413.04 K
  vapor or sublimation pressure: 1.8e-08 kPa
415.54 K
  vapor or sublimation pressure: 2.5e-08 kPa
418.06 K
  vapor or sublimation pressure: 3.3e-08 kPa
420.57 K
  vapor or sublimation pressure: 4.4e-08 kPa
423.09 K
  vapor or sublimation pressure: 6e-08 kPa
425.61 K
  vapor or sublimation pressure: 7.6e-08 kPa
428.14 K
  vapor or sublimation pressure: 1.03e-07 kPa
430.65 K
  vapor or sublimation pressure: 1.35e-07 kPa
433.18 K
  vapor or sublimation pressure: 1.7e-07 kPa
435.69 K
  vapor or sublimation pressure: 2.23e-07 kPa
438.18 K
  vapor or sublimation pressure: 2.92e-07 kPa
440.71 K
  vapor or sublimation pressure: 3.73e-07 kPa
